Reference: ChEMBL document CHEMBL1156829 (Proc Natl Acad Sci U S A, 2008)
Several values for one entry are separate records, joined by “and”; a condition that tells them apart may be missing. Equal values may be shown once.

Experiments:
[1] = test system: Plasmodium falciparum; experiment: NOVARTIS: Inhibition of Plasmodium falciparum W2 (drug-resistant) proliferation in erythrocyte-based infection assay; format: functional, organism-based; conditions: read-out: EC50
[2] = test system: Plasmodium falciparum; experiment: NOVARTIS: Inhibition of Plasmodium falciparum 3D7 (drug-susceptible) proliferation in erythrocyte-based infection assay; format: functional, organism-based
[3] = NOVARTIS: Cytotoxicity against human hepatocellular carcinoma cell line (Huh7); format: toxicity, cell-based, Huh-7; conditions: Huh7 cells (hepatocellular carcinoma cell line)

SMILES	EC50 ([1]; Plasmodium falciparum, W2) [nM]	EC50 ([2]; Plasmodium falciparum, 3D7) [nM]	EC50 [2]	CC50 [3] [µM]	EC50 [1]
COc1ccc(-c2cc(C(F)(F)F)n3ncc(C(=O)NCc4ccccc4)c3n2)cc1	1540	> 1250	–	–	–
CC[n+]1cc(C)ccc1C=Cc1ccc(N(C)C)cc1	386	–	521 nM	–	–
CC(C)CN1C(=O)c2ccccc2C(C(=O)Nc2cccc(C(F)(F)F)c2)C1c1cccs1 (configuration not stated)	–	–	–	> 100	–
C=CC12CCN(CC1)C(C(O)c1ccnc3ccc(OC)cc13)C2 (configuration not stated)	29.3	–	–	77.7	–
CC[n+]1ccc(C=Cc2ccc(N(C)C)cc2)cc1	–	–	409 nM	> 84.9	> 4460 nM
CCOC(=O)C1=C(C)N=c2sc(=Cc3cc(Cl)ccc3O)c(=O)n2C1c1ccc(OC)c(OC)c1 (configuration not stated)	–	–	–	> 100	1440 nM and 264 nM
Cc1cc(Nc2ccc(C)c(F)c2)n2nc(C)nc2n1	–	1040	–	> 100	–
COC(=O)c1ccc(C2C3=C(O)CC(c4ccco4)CC3=Nc3ccccc3N2C(=O)c2ccccc2)cc1 (configuration not stated)	–	387	579 nM	> 100	–
CCOC(=O)c1c(-c2ccc3c(c2)OCO3)[nH]c2cc(OC)ccc2c1=O	180	127	–	–	–
CCCCOc1cccc(NC(=O)CSC2=C(C#N)C(c3ccccc3)C(C(=O)Nc3ccccc3)=C(C)N2)c1 (configuration not stated)	479	507	–	–	–
C=CC1CN2CCC1CC2[C@@H](OC(=O)c1cc([N+](=O)[O-])cc([N+](=O)[O-])c1)c1ccnc2ccc(OC)cc12 (some centres not stated)	1610	1300	–	–	–
O=C(Nc1cccc(-c2csc(-c3ccccc3)n2)c1)c1cccs1	672	1240	–	–	–
Cc1ccnc(Nc2nc(-c3ccccn3)cs2)c1	46.3	113	–	–	–
CC(C)CN1C(=O)c2ccccc2C(C(=O)Nc2ccccn2)C1c1cccs1 (configuration not stated)	–	–	–	> 100	–
CN1/C(=C/C=C/c2oc3ccccc3[n+]2C)Oc2ccccc21	–	161	182 nM	–	–
Cc1ccc(C=Cc2ccc(N(C)C)cc2)[n+](C)c1	–	–	1160 nM	–	914 nM
CN(C)c1ccc(C=C2SC(=Nc3ccccc3)NC2=O)cc1	–	27.1	–	> 74.4	–
COc1cc2c(cc1OC)C1=NNC(=O)C1=NC(C)(C)C2	793	> 1580	–	–	–
CCOC(=O)C1=C(C)NC(=Cc2cc(C)n(-c3ccccc3C(F)(F)F)c2C)C1=O	11.7	13.8	–	–	–
CN1/C(=C\C=C\C2=[N+](C)c3ccc4ccccc4c3C2(C)C)C(C)(C)c2ccccc21	1020	1640	–	–	–
O=C1C(N2CCCCC2)=C(N2CCOCC2)C(=O)c2ccccc21	> 1460	1240	–	–	–

SMILES	EC50 ([1]; Plasmodium falciparum, W2) [nM]	EC50 ([2]; Plasmodium falciparum, 3D7) [nM]	EC50 [2]	CC50 [3] [µM]	EC50 [1]
CCN1/C(=C\c2sc3ccc(O)cc3[n+]2CC)C=Cc2ccccc21	701	582	–	–	–
Oc1ccc(C(CCNCCc2c[nH]c3ccccc23)c2ccccc2)cc1 (configuration not stated)	474	> 997	–	–	–
CCOC(=O)C1=C(C)N/C(=C/c2cc(C)n(-c3ccccc3C(F)(F)F)c2C)C1=O	628	471	–	–	–
CC(C)CN1C(=O)c2ccccc2C(C(=O)NC2CCCCC2)C1c1cccs1 (configuration not stated)	–	–	–	> 100	–
COc1ccc2ccccc2c1C1NC(SCc2ccc(F)cc2)=NC(C)=C1C(C)=O (configuration not stated)	702	> 1610	–	–	–
O=C1CCC(=O)N1c1ccc(CSc2nc3ccccc3[nH]2)cc1	> 1250	> 281	–	–	–
CCCOc1ccc(C(=O)C2=C(O)C(=O)N(CCN3CCOCC3)C2c2ccc(F)cc2)c(C)c1 (configuration not stated)	> 896	> 1250	–	–	–
CN(C)c1ccc(/C=C2\N=C(c3ccccc3F)OC2=O)cc1	> 1210	> 1250	–	–	–
Cc1ccc(NC(=O)c2cc3ccccc3oc2=O)nc1	> 1250	> 1080	–	–	–
Cc1cc(/C=C2\SC(=Nc3ccccc3)N(C3CCCCC3)C2=O)c(C)n1-c1ccc(F)cc1	383	–	–	> 100	680 nM
Cc1cccc(NC(c2cccc(F)c2)c2ccc3cccnc3c2O)n1 (configuration not stated)	880	1710	–	–	–
COc1ccc(-c2nc(-c3ccc(-c4[nH]c(-c5ccc(OC)cc5)nc4-c4ccccc4)cc3)c(-c3ccccc3)[nH]2)cc1	> 1250	1290	–	–	–
COc1cnc(-c2ccccn2)nc1N1CCCC1	648	489	–	–	–
COc1cc(C=NNc2nc3ccccc3[nH]2)cc(Br)c1O	> 1250	1420	–	–	–
CC1=NN(c2ccccc2)C(=O)C1=NNc1c(Br)cc(Br)cc1Br	> 1050	> 1250	–	–	–
CCOC(=O)c1c(-c2ccc3c(c2)OCO3)[nH]c2cccc(OC)c2c1=O	–	–	–	> 10	–
N#CCSc1nc2c(sc(=S)n2-c2ccccc2)c(=O)n1Cc1ccco1	715	> 1350	–	–	–
COc1ccc(OC)c(C=NNC(=O)Cc2cc(O)n[nH]2)c1	1940	> 1250	–	–	–
CCN(CC)c1ccc(/C=C/c2ccc3ccc(OC)cc3[n+]2CC)cc1	–	–	38.4 nM and 248 nM	–	–
Cc1ccc(NC(=O)C2C3C=CC4(O3)C2C(=O)N(CCCN2CCOCC2)C4C(=O)NC2CCCC(C)C2C)cc1Cl (configuration not stated)	> 117	> 1630	–	–	–
CC1(C)Cc2nc3ccccc3c(NCc3ccc(Cl)cc3)c2C(O)C1 (configuration not stated)	2110	> 1250	–	–	–
